# Assay: Test 3: effect of each of primary ingredients on blood ethanol concentration in rats
# Type: in vivo, rat
# Settings: pueraria flower 0.28, phaseoli 0.39, pinelliae 0.09, fructose 1.2 g/kg
# Procedure: The 50 g of pueraria flower was finely chopped and extracted with 11 of water at 100° C. for 2.5 hours. The extract was filtered and lyophilized in a freeze dryer. The 10.7 g of the powder was obtained.
# The phaseoli radiati semen and pinelliae tuber were extracted and lyophilized in the same manner as described for puerariae flos. The 14.6 g and 7 g of powder were obtained from phaseoli radiati semen and pinelliae tuber, respectively.
# The powder of pueraria flower, phaseoli radiati semen, pinelliae tuber, and fructose were dissolved in an adquate volume of water and administered to rats fasted 18 to 24 hours at a dose of 0.28 g, 0.39 g, 0.09 g and 1.2 g/kg body weight, respectively. The rats were treated in the same manner as Test 2.
structure (smiles),measurement,setting,value
O=C(CO)[C@@H](O)[C@H](O)[C@H](O)CO [Fructose],Alcohol concentration in blood,1 hr after 3 g/kg ethanol,1.984 g/L
same,Alcohol concentration in blood,2 hr after 3 g/kg ethanol,1.654 g/L
same,Alcohol concentration in blood,4 hr after 3 g/kg ethanol,0.724 g/L
same,Alcohol concentration in blood,6 hr after 3 g/kg ethanol,0.325 g/L

# Reference: patent US5324516A, “Galenic composition for decreasing blood alcohol concentration” (priority 1991, dated 1994)
